Test results published in patent publication US12552854B2, “Peptides that block presentation of antigenic islet peptides by HLA-DQ8 and methods for treating type-1 diabetes” (Icahn School of Medicine at Mount Sinai, priority 2019, dated 2026).
“Also recorded” adds a separate entry of the source.

Tested on: PBMCs isolated from DQ8 positive T1D patients
Assay: CFSE T-cell proliferation in PBMCs from DQ8 positive recent-onset T1D patients
Type: cell-based, human
Conditions: all peptides at 50 μg/ml
Text: Subjects with a diagnosis of T1D within the previous 2 years were recruited from the Pediatric Endocrine clinic at Children Hospital at Montefiore and from the adult Endocrine clinics at Montefiore and Mount Sinai Hospitals (New York). Peripheral blood mononuclear cells (PBMCs) were isolated from heparinized blood using Ficoll-Paque (GE Healthcare); freshly isolated PBMCs were used for T-cell activation studies and for genotyping. DNA purified from the blood of the patients was typed for HLA-DQ as previously described (32). PBMCs isolated from DQ8 positive patients were seeded in 96 well plates with 200 μl medium (RPMI, 10% FBS). […] The stimulated PBMCs were assessed for cytokine production and T-cell proliferation as described above for mouse splenocytes. DQ8 typed patients with long standing T1D (>10 years) were used as negative controls in the experiments (no T-cell responses to islet peptides).

`CC(C)C[C@@H](NC(=O)[C@@H](Cc1ccc(O)cc1)NC(=O)[C@@H](CC(C)C)NC(=O)[C@H](NC(=O)[C@@H](CS)NC(=O)CNC(=O)[C@@H](CCC(=O)O)NC(=O)[C@@H](CCCNC(=N)N)NC(=O)CNC(=O)CN)C(C)C)C(=O)N[C@H](C)C(=O)N[C@H](CCC(=O)O)C(=O)N[C@@H](C(=O)NCC(=O)NCC(=O)O)C(C)C` [RI-CT] was tested, and the “T-cell proliferation induced by InsB:9-23 (CFSE assay), PBMCs of DQ8 positive T1D patients” value was “significantly suppressed; also recorded: significantly decreased”.
